Laboratory results taken from patent US9198420B2, “Rodenticidal norbormide analogues” (priority 2012, dated 2015).

Key:
[1] = system: rat caudal artery; assay: Rat caudal artery ring contractile force (vasoconstrictory activity); set-up: species or system rat (male Wistar); settings: for Emax: Table 1, read-out: Vasoconstriction: maximum contractile effect as a % of 90 mM KCl contraction
Experimental: Male Wistar rats (150-250 g) were obtained from Charles River Italia (Milano, Italy) and killed by decapitation. Ventral caudal artery was isolated, placed in Tyrode solution at room temperature and cleaned of extraneous fatty and connective tissue under a dissection microscope. All vessels were cut into rings 2 mm long, mounted on a custom-built plexiglass support by means of two intraluminal tungsten wires and placed in 20 mL double-jacketed organ baths filled with Tyrode solution of the following composition (mM): NaCl 125, KCl 5, CaCl2 2.7, MgSO4 1, KH2PO4 1.2, NaHCO3 25 and glucose 11, maintained at 37° C., pH 7.35, bubbled with 95% O2 and […]. The endothelium was removed by gently rubbing the lumen of the rings with a very thin rough-surfaced tungsten wire (caudal artery). The mechanical activity of the rings was detected by means of an isometric force transducer (Ugo Basile, Comerio, Italy) coupled to a pen recorder (Ugo Basile, Comerio, Italy). Rings were passively stretched to impose a resting tension (2 g) and were allowed to equilibrate for 60 min. After equilibration, each ring was repeatedly simulated with both KCl (90 mM) and phenylephrine (10 μM) until reproducible responses were obtained. To verify the absence of the endothelium, rings contracted with 1 μM phenylephrine were exposed to […] carbamylcholine. […] Each compound was tested for the vasoconstrictor activity at a concentration of 50 μM, which has been previously reported to be the one evoking the maximal response to norbormide. The contractile responses to the compounds were expressed as percent of the 90 mM KCl response.

[2] = system: Sprague Dawley rats; assay: In vivo lethality, oral gavage; set-up: species or system rat (Sprague Dawley); settings: 40 mg/Kg, rat, n = 2
Experimental: Sprague Dawley rats (150-200 g) were used to appraise the rodenticidal activity of the compounds put forward for in vivo evaluation. Briefly, prior to administration the compounds were dissolved in 0.2 M hydrochloric acid (5% DMSO overall), to the desired dose, and without delay either injected intravenously, via the tail, or orally gavaged. All treated animals were housed in a quiet room and monitored every minute (i.v) or every 15 min (oral) to verify early signs of toxicity.

[3] = Table 7, compounds of formula (V)

SMILES	Vasoconstriction: maximum contractile effect as a % of 90 mM KCl contraction ([1]; Table 1, compound at 50 μM)	other results
CCCCCCCCCCCC(=O)OCN1C(=O)C2C3C=C(C(O)(c4ccccc4)c4ccccn4)C(C3=C(c3ccccc3)c3ccccn3)C2C1=O (stereo not drawn) [Compound 11, N-Dodecanoyloxymethyl-5-(α-hydroxy-α-2-pyridylbenzyl)-7-(α-2-pyridylbenzylidene)-5-norbornene-2,3-dicarboximide]		Emax [1]: 0%; Vasoconstriction: maximum contractile effect as a % of 90 mM KCl contraction ([1]; Table 4, pre-cleavage, n = 3): 0%
O=C(OCN1C(=O)C2C3C=C(C(O)(c4ccccc4)c4ccccn4)C(C3=C(c3ccccc3)c3ccccn3)C2C1=O)C(c1ccccc1)c1ccccc1 (stereo not drawn) [Compound 17, N-Diphenylacetyloxymethyl-5-(α-hydroxy-α-2-pyridylbenzyl)-7-(α-2-pyridylbenzylidene)-5-norbornene-2,3-dicarboximide]		Emax [1]: 0%; Vasoconstriction: maximum contractile effect as a % of 90 mM KCl contraction ([1]; Table 4, pre-cleavage, n = 3): 0%; In vivo lethality (oral) [2]: no^h
CC(O)CN1C(=O)C2C3C=C(C(O)(c4ccccc4)c4ccccn4)C(C3=C(c3ccccc3)c3ccccn3)C2C1=O (stereo not drawn) [Compound 103, N-2′-Hydroxypropyl-5-(α-hydroxy-α-2-pyridylbenzyl)-7-(α-2-pyridylbenzylidene)-5-norbornene-2,3-dicarboximide]		Vasoconstriction: maximum contractile effect as a % of 90 mM KCl contraction [1, 3]: 67%; Vasoconstriction: maximum contractile effect as a % of 90 mM KCl contraction ([1]; n = 3, Table 8): 67%
O=C1C2C3C=C(C(O)(c4ccccc4)c4ccccn4)C(C3=C(c3ccccc3)c3ccccn3)C2C(=O)N1CCCCO (stereo not drawn) [Compound 105, N-4′-Hydroxybutyl-5-(α-hydroxy-α-2-pyridylbenzyl)-7-(α-2-pyridylbenzylidene)-5-norbornene-2,3-dicarboximide]		Vasoconstriction: maximum contractile effect as a % of 90 mM KCl contraction [1, 3]: 100%; Vasoconstriction: maximum contractile effect as a % of 90 mM KCl contraction ([1]; n = 3, Table 8): 100%
CC(C)(C)C(=O)OCCN1C(=O)C2C3C=C(C(O)(c4ccccc4)c4ccccn4)C(C3=C(c3ccccc3)c3ccccn3)C2C1=O (stereo not drawn) [Compound 109, 5-(α-Hydroxy-α-2-pyridylbenzyl)-N-2′-pivaloyloxyethyl-7-(α-2-pyridylbenzylidene)-5-norbornene-2,3-dicarboximide]	≧132%	
CCCC(=O)OCCN1C(=O)C2C3C=C(C(O)(c4ccccc4)c4ccccn4)C(C3=C(c3ccccc3)c3ccccn3)C2C1=O (stereo not drawn) [Compound 110, N-2′-Butanoyloxyethyl-5-(α-hydroxy-α-2-pyridylbenzyl)-7-(α-2-pyridylbenzylidene)-5-norbornene-2,3-dicarboximide]	≧132%	
O=C(OCCN1C(=O)C2C3C=C(C(O)(c4ccccc4)c4ccccn4)C(C3=C(c3ccccc3)c3ccccn3)C2C1=O)c1ccccc1 (stereo not drawn) [Compound 113, N-2′-Benzoyloxyethyl-5-(α-hydroxy-α-2-pyridylbenzyl)-7-(α-2-pyridylbenzylidene)-5-norbornene-2,3-dicarboximide]	≧132%	
COc1ccccc1C(=O)OCCN1C(=O)C2C3C=C(C(O)(c4ccccc4)c4ccccn4)C(C3=C(c3ccccc3)c3ccccn3)C2C1=O (stereo not drawn) [Compound 114, 5-(α-Hydroxy-α-2-pyridylbenzyl)-N-2′-o-methoxybenzoyloxyethyl-7-(α-2-pyridylbenzylidene)-5-norbornene-2,3-dicarboximide]	≧132%	
COc1cccc(C(=O)OCCN2C(=O)C3C4C=C(C(O)(c5ccccc5)c5ccccn5)C(C4=C(c4ccccc4)c4ccccn4)C3C2=O)c1 (stereo not drawn) [Compound 115, 5-(α-Hydroxy-α-2-pyridylbenzyl)-N-2′-m-methoxybenzoyloxyethyl-7-(α-2-pyridylbenzylidene)-5-norbornene-2,3-dicarboximide]	52%	
COc1ccc(C(=O)OCCN2C(=O)C3C4C=C(C(O)(c5ccccc5)c5ccccn5)C(C4=C(c4ccccc4)c4ccccn4)C3C2=O)cc1 (stereo not drawn) [Compound 116, 5-(α-Hydroxy-α-2-pyridylbenzyl)-N-2′-p-methoxybenzoyloxyethyl-7-(α-2-pyridylbenzylidene)-5-norbornene-2,3-dicarboximide]	≧132%	
O=C(Cc1ccccc1)OCCN1C(=O)C2C3C=C(C(O)(c4ccccc4)c4ccccn4)C(C3=C(c3ccccc3)c3ccccn3)C2C1=O (stereo not drawn) [Compound 117, 5-(α-Hydroxy-α-2-pyridylbenzyl)-N-2′-phenylacetyloxyethyl-7-(α-2-pyridylbenzylidene)-5-norbornene-2,3-dicarboximide]	≧132%	
O=C(CCc1ccccc1)OCCN1C(=O)C2C3C=C(C(O)(c4ccccc4)c4ccccn4)C(C3=C(c3ccccc3)c3ccccn3)C2C1=O (stereo not drawn) [Compound 119, N-2′-Dihydrocinnamoyloxyethyl-5-(α-hydroxy-α-2-pyridylbenzyl)-7-(α-2-pyridylbenzylidene)-5-norbornene-2,3-dicarboximide]	≧132%	
COc1cccc(C=CC(=O)OCCN2C(=O)C3C4C=C(C(O)(c5ccccc5)c5ccccn5)C(C4=C(c4ccccc4)c4ccccn4)C3C2=O)c1 (stereo not drawn) [Compound 125, 5-(α-1-hydroxy-α-2-pyridylbenzyl)-N-[2′-(3″-methoxycinnamoyloxy)ethyl]-7-(α-2-pyridylbenzylidene)-5-norbornene-2,3-dicarboximide]	80%	
Cc1ccc(C=CC(=O)OCCN2C(=O)C3C4C=C(C(O)(c5ccccc5)c5ccccn5)C(C4=C(c4ccccc4)c4ccccn4)C3C2=O)cc1 (centres unmarked) [Compound 128]	42%	
CN(C)c1ccc(C=CC(=O)OCCN2C(=O)C3C4C=C(C(O)(c5ccccc5)c5ccccn5)C(C4=C(c4ccccc4)c4ccccn4)C3C2=O)cc1 (centres unmarked) [Compound 131]	30%	
COc1ccc(C=CC(=O)OCCN2C(=O)C3C4C=C(C(O)(c5ccccc5)c5ccccn5)C(C4=C(c4ccccc4)c4ccccn4)C3C2=O)cc1OC (centres unmarked) [Compound 132]	120%	
O=C(/C=C/C=C/c1ccccc1)OCCN1C(=O)C2C3C=C(C(O)(c4ccccc4)c4ccccn4)C(C3=C(c3ccccc3)c3ccccn3)C2C1=O (stereo not drawn) [Compound 187, 5-(α-Hydroxy-α-2-pyridylbenzyl)-N-[2′-(5″-phenyl-2″E,4″E-pentadienoyloxy)ethyl]-7-(α-2-pyridylbenzylidene)-5-norbornene-2,3-dicarboximide]	0%	
O=C(C=Cc1ccc2ccccc2c1)OCCN1C(=O)C2C3C=C(C(O)(c4ccccc4)c4ccccn4)C(C3=C(c3ccccc3)c3ccccn3)C2C1=O (stereo not drawn) [Compound 188, 5-(α-Hydroxy-α-2-pyridylbenzyl)-N-[2′-(2″-naphthylacryloyloxy)ethyl]-7-(α-2-pyridylbenzylidene)-5-norbornene-2,3-dicarboximide]	0%	
O=C(OCOCCN1C(=O)C2C3C=C(C(O)(c4ccccc4)c4ccccn4)C(C3=C(c3ccccc3)c3ccccn3)C2C1=O)C(c1ccccc1)c1ccccc1 (stereo not drawn) [Compound 201, N-[2′-(Diphenylacetyloxymethyloxy)ethyl]-5-(α-hydroxy-α-2-pyridylbenzyl)-7-(α-2-pyridylbenzylidene)-5-norbornene-2,3-dicarboximide]		Emax [1]: ≥ 132%
O=C(CCC(=O)Oc1ccccc1)OCCN1C(=O)C2C3C=C(C(O)(c4ccccc4)c4ccccn4)C(C3=C(c3ccccc3)c3ccccn3)C2C1=O (stereo not drawn) [Compound 204, 5-(α-Hydroxy-α-2-pyridylbenzyl)-N-2′-(monophenyl)succinoyloxyethyl-7-(α-2-pyridylbenzylidene)-5-norbornene-2,3-dicarboximide]	0%	
CS(=O)(=O)c1ccc(C=CC(=O)OCCN2C(=O)C3C4C=C(C(O)(c5ccccc5)c5ccccn5)C(C4=C(c4ccccc4)c4ccccn4)C3C2=O)cc1 (stereo not drawn) [Compound 329, 5-(α-Hydroxy-α-2-pyridylbenzyl)-N-[2′-(4″-methylsulfonylcinnamoyloxy)ethyl]-7-(α-2-pyridylbenzylidene)-5-norbornene-2,3-dicarboximide]		Emax [1]: 88%; Vasoconstriction: maximum contractile effect as a % of 90 mM KCl contraction ([1]; Table 4, pre-cleavage, n = 3): 88%; In vivo lethality (oral) [2]: yes^h
O=C(C=Cc1ccccc1)NCCN1C(=O)C2C3C=C(C(O)(c4ccccc4)c4ccccn4)C(C3=C(c3ccccc3)c3ccccn3)C2C1=O (stereo not drawn) [Compound 365, N-2′-Cinnamamidoethyl-5-(α-hydroxy-α-2-pyridylbenzyl)-7-(α-2-pyridylbenzylidene)-5-norbornene-2,3-dicarboximide]		Vasoconstriction: maximum contractile effect as a % of 90 mM KCl contraction ([1]; Table 2, compound at 50 μM): 43%
